Assay results taken from publication PMC5511785 (Journal of pharmaceutical sciences, 2017).
Where two headings read alike, the source gives them in different places.

Legend:
OATP1B1 [1] = experiment: Immunoblot of total OATP1B1 protein in HEK293-OATP1B1 cells; assay type: cell-based, human; details: 10 μM, 1 h
OATP1B3 [2] = experiment: Immunoblot of total OATP1B3 protein in HEK293-OATP1B3 cells; assay type: cell-based, human; details: 10 μM, 1 h
GFP-OATP1B1 [3] = assay type: cell-based, human
GFP-OATP1B3 [4] = assay type: cell-based, human
OATP1B1 [5] = target: T1, OATP1B1 (Homo sapiens, UniProt Q9Y6L6)
T1 sequence (Q9Y6L6 1-691): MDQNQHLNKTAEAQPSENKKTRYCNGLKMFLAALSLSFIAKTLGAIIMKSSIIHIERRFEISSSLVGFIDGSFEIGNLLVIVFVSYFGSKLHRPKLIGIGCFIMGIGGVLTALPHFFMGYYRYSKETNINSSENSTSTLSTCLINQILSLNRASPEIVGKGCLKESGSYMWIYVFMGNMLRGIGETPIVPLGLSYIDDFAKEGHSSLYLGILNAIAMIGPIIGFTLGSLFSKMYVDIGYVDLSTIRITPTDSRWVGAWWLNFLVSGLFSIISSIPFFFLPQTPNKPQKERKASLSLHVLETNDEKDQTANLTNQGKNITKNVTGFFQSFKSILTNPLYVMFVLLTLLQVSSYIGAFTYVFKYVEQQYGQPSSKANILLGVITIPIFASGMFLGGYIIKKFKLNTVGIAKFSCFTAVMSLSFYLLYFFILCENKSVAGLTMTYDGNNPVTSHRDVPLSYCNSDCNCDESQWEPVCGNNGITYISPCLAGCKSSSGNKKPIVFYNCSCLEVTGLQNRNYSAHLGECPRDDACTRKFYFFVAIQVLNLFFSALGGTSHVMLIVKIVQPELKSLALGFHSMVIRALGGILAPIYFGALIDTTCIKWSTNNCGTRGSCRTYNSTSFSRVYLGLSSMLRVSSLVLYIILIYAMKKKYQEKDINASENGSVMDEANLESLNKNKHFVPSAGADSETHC

[6] = system: HEK293-OATP1B1 and -1B3 cells; details: 1 h treatment; rifampicin up to 25 μM, dasatinib up to 20 μM
[7] = cited from earlier work
[8] = cited from earlier work; remark: listed apart in the source
[9] = co-administration of dasatinib with simvastatin; cited from earlier work
OATP1B1 [10] = details: co-incubation with 10 μM; cited from earlier work
OATP1B1 [11] = target: T1, OATP1B1; experiment: cell-based; details: [3H]-E217βG 1 μM, 2 min, HEK293-OATP1B1
OATP1B3 [12] = target: T2, OATP1B3 (Homo sapiens, UniProt Q9NPD5)
T2 sequence (Q9NPD5 1-702): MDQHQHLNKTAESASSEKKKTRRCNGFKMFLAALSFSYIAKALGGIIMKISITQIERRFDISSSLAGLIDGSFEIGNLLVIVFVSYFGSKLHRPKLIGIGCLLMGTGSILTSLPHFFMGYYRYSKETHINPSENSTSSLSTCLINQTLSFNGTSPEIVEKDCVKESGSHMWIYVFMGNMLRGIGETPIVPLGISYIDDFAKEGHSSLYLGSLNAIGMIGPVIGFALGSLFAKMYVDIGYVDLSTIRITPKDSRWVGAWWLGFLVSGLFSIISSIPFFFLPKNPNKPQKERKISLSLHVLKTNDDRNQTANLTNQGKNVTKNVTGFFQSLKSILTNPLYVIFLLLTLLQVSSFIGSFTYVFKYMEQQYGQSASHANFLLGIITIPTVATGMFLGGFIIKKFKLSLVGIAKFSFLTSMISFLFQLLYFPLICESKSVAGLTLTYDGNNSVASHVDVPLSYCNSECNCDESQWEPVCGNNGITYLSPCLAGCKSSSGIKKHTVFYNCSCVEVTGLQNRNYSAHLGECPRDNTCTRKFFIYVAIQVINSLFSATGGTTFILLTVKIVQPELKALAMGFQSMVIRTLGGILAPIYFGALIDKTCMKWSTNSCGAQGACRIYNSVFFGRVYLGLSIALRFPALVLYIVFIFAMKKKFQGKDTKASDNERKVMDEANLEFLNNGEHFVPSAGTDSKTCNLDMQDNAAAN

GFP-OATP1B1 [13] = target: T3, GFP-OATP1B1 (Homo sapiens, UniProt Q9Y6L6); experiment: [3H]-E217βG accumulation in HEK293-GFP-OATP1B1 cells
T3 sequence (Q9Y6L6 1-691): T1 sequence (Q9Y6L6 1-691)

GFP-OATP1B3 [14] = target: T4, GFP-OATP1B3 (Homo sapiens, UniProt Q9NPD5); experiment: [3H]-E217βG accumulation in HEK293-GFP-OATP1B3 cells
T4 sequence (Q9NPD5 1-702): T2 sequence (Q9NPD5 1-702)

OATP1B1 [15] = target: T1, OATP1B1; experiment: OATP1B1-mediated [3H]-E1S accumulation; assay type: cell-based; details: 1 μM, 30 min or 1 h
OATP1B1 [16] = target: T1, OATP1B1; experiment: OATP1B1-mediated [3H]-pitavastatin accumulation; assay type: cell-based; details: 10 μM, 1 h pre-incubation
[17] = Estimated maximum unbound inhibitor concentration at the inlet to the liver; set-up: species or system human; details: Supplemental Table S2
OATP1B1 [18] = details: 1–25 μM; cited from earlier work
OATP1B3 [19] = target: T2, OATP1B3; experiment: cell-based; details: [3H]-E217βG 1 μM, 2 min, HEK293-OATP1B3
[20] = 20 μM, up to at least 1 h (data not shown)
[21] = IC50, co-incubation, without pretreatment
[22] = IC50, pre+co-incubation (1 h pretreatment)
[23] = substrate kinetics, vehicle control pretreatment, mean ± SD, n=3
[24] = unlabeled E217βG 1–30 μM, 0.5 and 1 h

Cc1nc(Nc2ncc(C(=O)Nc3c(C)cccc3Cl)s2)cc(N2CCN(CCO)CC2)n1 [Dasatinib]
Total protein level of OATP1B1 vs vehicle control (OATP1B1 [1]): similar | Total protein level of OATP1B3 vs vehicle control (OATP1B3 [2]): similar | Plasma membrane localization of GFP-OATP1B1 (GFP-OATP1B1 [3]; [20]): did not cause an obvious change | Plasma membrane localization of GFP-OATP1B3 (GFP-OATP1B3 [4]; [20]): did not cause an obvious change | Effect of pretreatment on OATP1B1-mediated [3H]-E217βG accumulation (OATP1B1 [5]; 5 - 20 μM for 0.5 and 1 h): significantly decreased | LDH cytotoxicity [6]: negligible toxicity | pKa1 [7]: 6.8 | pKa2 [7]: 10.8 | Log PO:W ([7]; neutral species octanol:buffer partition coefficient): 1.8 | ka ([8]; first-order absorption rate constant): 6 h⁻¹ | fa ([8]; fraction available for absorption from dosage form, meta-analysis): 0.781 | Vss ([8]; from allometric scaling): 4.2 L/kg | CLPO ([8]; observed value (CV% 106.5)): 449.4 L/h | CLR ([8]; observed value): 0.4 L/h | Increase of AUC of simvastatin [9]: 20% | Increase of AUC of simvastatin acid [9]: 27% | Decrease of OATP1B1-mediated [3H]-E217βG transport (OATP1B1 [10]): ~ 70% | IC50 (OATP1B1 [11]; [21]): 4810 ± 1700 nM | IC50 (OATP1B1 [11]; [22]): 2330 ± 860 nM

C[C@]12CC[C@@H]3c4ccc(O)cc4CC[C@H]3[C@@H]1CC[C@@H]2O[C@@H]1O[C@H](C(=O)O)[C@@H](O)[C@H](O)[C@H]1O [E217βG, estradiol 17β-D-glucuronide]
Vmax of E217βG transport mediated by OATP1B1 (OATP1B1 [5]; [23]): 55.2 ± 1.6 pmol/mg protein/min | Effect of pretreatment on OATP1B1-mediated transport of [3H]-E217βG (OATP1B1 [5]; [24]): only slightly decreases or has no effect | Vmax of E217βG transport mediated by OATP1B3 (OATP1B3 [12]; [23]): 15.8 ± 1.6 pmol/mg protein/min | Effect of pretreatment on OATP1B3-mediated transport of [3H]-E217βG (OATP1B3 [12]; [24]): only slightly decreases or has no effect | [3H]-E217βG accumulation vs HEK293-Mock cells (GFP-OATP1B1 [13]; 1 μM, 2 min, HEK293-GFP-OATP1B1 (data not shown)): 390 fold | [3H]-E217βG accumulation vs HEK293-Mock cells (GFP-OATP1B3 [14]; 1 μM, 2 min, HEK293-GFP-OATP1B3 (data not shown)): ~ 34 fold

CO[C@H]1/C=C/O[C@@]2(C)Oc3c(C)c(O)c4c(O)c(c(/C=N/N5CCN(C)CC5)c(O)c4c3C2=O)NC(=O)/C(C)=C\C=C\[C@H](C)[C@H](O)[C@@H](C)[C@@H](O)[C@@H](C)[C@H](OC(C)=O)[C@@H]1C [Rifampicin]
Effect of pretreatment on OATP1B1-mediated [3H]-E1S transport (OATP1B1 [15]): did not affect | Effect of pre-incubation on OATP1B1-mediated [3H]-pitavastatin accumulation (OATP1B1 [16]): significantly decreased | Total protein level of OATP1B1 vs vehicle control (OATP1B1 [1]): similar | Total protein level of OATP1B3 vs vehicle control (OATP1B3 [2]): similar | Plasma membrane localization of GFP-OATP1B1 (GFP-OATP1B1 [3]; 10 μM, 1–61 min): primarily localized at the plasma membrane | Plasma membrane localization of GFP-OATP1B3 (GFP-OATP1B3 [4]; 10 μM, 1–61 min): primarily localized at the plasma membrane | Maximum possible unbound concentration at the inlet to the liver (Iu,in,max) [17]: 10.7 µM | Effect of pre-incubation on OATP1B1-mediated [3H]-E217βG transport (OATP1B1 [5]; 1 – 25 μM for 0.5 h and 0.5 – 25 μM for 1 h, washed): significantly decreased | Change of Km of OATP1B1-mediated E217βG transport vs control (OATP1B1 [5]; pretreatment 10 μM, 1 h): ~ 1.5 fold | Decrease of Vmax of OATP1B1-mediated E217βG transport vs control (OATP1B1 [5]; pretreatment 10 μM, 1 h): ~ 3.5 fold | Effect of pre-incubation on OATP1B1-mediated [3H]-E1S transport (OATP1B1 [18]): did not significantly affect | IC50 (OATP1B1 [11]; [21]): 740 ± 80 nM | IC50 (OATP1B1 [11]; [22]): 240 ± 30 nM | IC50 (OATP1B3 [19]; [21]): 260 ± 30 nM | IC50 (OATP1B3 [19]; [22]): 100 ± 10 nM | Effect of pretreatment on [3H]-E217βG accumulation in HEK293-GFP-OATP1B1 (GFP-OATP1B1 [13]; 10 μM for 0.5 and 1 h): significantly decreased | Effect of pretreatment on [3H]-E217βG accumulation in HEK293-GFP-OATP1B3 (GFP-OATP1B3 [14]; 10 μM for 0.5 and 1 h): significantly decreased
